Laboratory results taken from patent US20240217957A1, “HETEROCYCLIC COMPOUND AND USE THEREOF” (TAKEDA PHARMACEUTICAL COMPANY LIMITED, priority 2022, published 2024).

Biological target: T1, human OX2 receptor (Homo sapiens, UniProt O43614)
T1 construct: expressed in transfected cells
T1 sequence (O43614 1-444): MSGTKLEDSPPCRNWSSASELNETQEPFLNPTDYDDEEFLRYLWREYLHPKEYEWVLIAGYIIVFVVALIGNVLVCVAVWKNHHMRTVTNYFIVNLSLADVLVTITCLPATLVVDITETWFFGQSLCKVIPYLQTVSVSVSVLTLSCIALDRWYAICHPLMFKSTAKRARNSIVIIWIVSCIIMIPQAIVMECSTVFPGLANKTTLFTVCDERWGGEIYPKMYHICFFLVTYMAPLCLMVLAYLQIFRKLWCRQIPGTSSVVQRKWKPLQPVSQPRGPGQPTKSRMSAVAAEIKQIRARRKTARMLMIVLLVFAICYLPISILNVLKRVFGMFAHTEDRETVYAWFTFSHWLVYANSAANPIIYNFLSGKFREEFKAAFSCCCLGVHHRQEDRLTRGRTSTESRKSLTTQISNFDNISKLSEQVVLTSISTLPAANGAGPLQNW
Test: Measurement of orexin type 2 receptor agonist activity (calcium fluorescence, Fluo-4 AM, FDSS)
Type: cell-based
Conditions: compound at 3 μM; CHO cells forcibly expressing human OX2 receptor; DMSO = 0%, 10 nM orexin A (human) = 100%
Protocol: In order to obtain cell clones that stably express human orexin type 2 receptor, human orexin type 2 (residues 1-444, NCBI Reference Sequence: AK314279) was constructed in a pcDNA3.1 (+) vector (Invitrogen) to express in mammalian cells. This plasmid DNA was transfected into CHO-K1 cells by electroporation, and stable clones were obtained by limiting dilution using resistance to G418 as a selection marker.
CHO cells in which human OX2 receptor was forcibly expressed were seeded at 10,000 cells/well into a 384-well black transparent bottom plate (BD falcon), and were incubated at 37° C., 5% CO2 for 1 day after incubation at room temperature for 30 minutes. After removing the cell plate medium, assay buffer containing calcium indicator A (HBSS (Thermo Fisher Scientific), 20 mM HEPES (Thermo Fisher Scientific), 0.1% BSA (Sigma-Aldrich), 2.5 μg/mL Fluo-4 AM (Dojin Kagaku), 0.08% Pluronic F127 (Dojin Kagaku), 1.25 mM probenecid (Dojin Kagaku)) was added at 30 μL/well. After incubation in a 5% CO2 incubator at 37° C. for 30 minutes, it was incubated at room temperature for another 30 minutes. Add 10 μL/well of the test compound diluted with assay buffer B (HBSS, 20 mM HEPES, 0.1% BSA), and use FDSS uCELL (Hamamatsu Photonics) to measure the fluorescence value every 1 second for 1 minute, and then every 2 seconds for […]. It was measured for 1 minute and 40 seconds. The amount of fluorescence value when DMSO is added instead of the test compound is defined as 0%, and the amount of fluorescence value when orexin A (human) (Peptide Institute) with a final concentration of 10 nM is added is defined as 100%. The activity (%) of the test compound was calculated.

| SMILES | OX2R agonist activity (3 μM, %) |
| --- | --- |
| Cc1cnc(C2(C)CC(N3C[C@@H](NS(C)(=O)=O)C(F)(F)C3)=NO2)c(-c2c(F)cc(F)cc2F)c1 (stereo partly drawn) [Example 10, N-[(3R)-4,4-difluoro-1-{5-methyl-5-[5-methyl-3-(2,4,6-trifluorophenyl)pyridin-2-yl]-4,5-dihydro-1,2-oxazol-3-yl}pyrrolidin-3-yl]methanesulfonamide] | 102% |
| Cc1cn(-c2c(F)cccc2F)c(C2(C)CC(N3C[C@@H](NS(C)(=O)=O)C(F)(F)C3)=NO2)n1 (stereo partly drawn) [Example 12, N-[(3R)-1-{5-[1-(2,6-difluorophenyl)-4-methyl-1H-imidazol-2-yl]-5-methyl-4,5-dihydro-1,2-oxazol-3-yl}-4,4-difluoropyrrolidin-3-yl]methanesulfonamide] | 71% |
| CCS(=O)(=O)N[C@@H]1CN(C2=NOC(c3ncc(C)cc3-c3c(F)cc(F)cc3F)(C(F)F)C2)CC1(F)F (stereo partly drawn) [Example 13, N-[(3R)-1-{5-(difluoromethyl)-5-[5-methyl-3-(2,4,6-trifluorophenyl)pyridin-2-yl]-4,5-dihydro-1,2-oxazol-3-yl}-4,4-difluoropyrrolidin-3-yl]ethanesulfonamide] | 107% |
| Cc1cnc(C2(C(F)F)CC(N3C[C@@H](NS(C)(=O)=O)C(F)(F)C3)=NO2)c(-c2c(F)cc(F)cc2F)c1 (stereo partly drawn) [Example 14, N-[(3R)-1-{5-(difluoromethyl)-5-[5-methyl-3-(2,4,6-trifluorophenyl)pyridin-2-yl]-4,5-dihydro-1,2-oxazol-3-yl}-4,4-difluoropyrrolidin-3-yl]methanesulfonamide] | 106% |
| CS(=O)(=O)N[C@@H]1CN(C2=NOC(CO)(c3ncc(F)cc3-c3c(F)cc(F)cc3F)C2)CC1(F)F (stereo partly drawn) [Example 15, N-[(3R)-4,4-difluoro-1-{5-[5-fluoro-3-(2,4,6-trifluorophenyl)pyridin-2-yl]-5-(hydroxymethyl)-4,5-dihydro-1,2-oxazol-3-yl}pyrrolidin-3-yl]methanesulfonamide] | 92% |
| Cc1cnc(C2(CO)CC(N3C[C@@H](NS(C)(=O)=O)C(F)(F)C3)=NO2)c(-c2c(F)cc(F)cc2F)c1 (stereo partly drawn) [Example 16, N-[(3R)-4,4-difluoro-1-{5-(hydroxymethyl)-5-[5-methyl-3-(2,4,6-trifluorophenyl)pyridin-2-yl]-4,5-dihydro-1,2-oxazol-3-yl}pyrrolidin-3-yl]methanesulfonamide] | 99% |
| Cc1cnc(C2CC(N3CC(F)(F)C3CNS(C)(=O)=O)=NO2)c(-c2c(F)cc(F)cc2F)c1 (stereo not shown) [Example 17, N-[(3,3-difluoro-1-{5-[5-methyl-3-(2,4,6-trifluorophenyl)pyridin-2-yl]-4,5-dihydro-1,2-oxazol-3-yl}azetidin-2-yl)methyl]methanesulfonamide] | 80% |
| CS(=O)(=O)N[C@@H]1CN(C2=NOC(c3ncc(C4CC4)cc3-c3c(F)cc(F)cc3F)C2)CC1(F)F (stereo partly drawn) [Example 18, N-[(3R)-1-{5-[5-cyclopropyl-3-(2,4,6-trifluorophenyl)pyridin-2-yl]-4,5-dihydro-1,2-oxazol-3-yl}-4,4-difluoropyrrolidin-3-yl]methanesulfonamide] | 103% |
| Cc1cnc(C2CC([C@@H]3CC[C@H](NS(C)(=O)=O)C3)=NO2)c(-c2c(F)cc(F)cc2F)c1 (stereo partly drawn) [Example 19, N-[(1S,3R)-3-{5-[5-methyl-3-(2,4,6-trifluorophenyl)pyridin-2-yl]-4,5-dihydro-1,2-oxazol-3-yl}cyclopentyl]methanesulfonamide] | 92% |
| Cc1cnc(C2CC(O[C@H]3C[C@@H](NS(C)(=O)=O)C3)=NO2)c(-c2c(F)cccc2F)c1 (stereo partly shown) [Example 20, N-[(1s,3s)-3-({5-[3-(2,6-difluorophenyl)-5-methylpyridin-2-yl]-4,5-dihydro-1,2-oxazol-3-yl}oxy)cyclobutyl]methanesulfonamide] | 65% |
| Cc1cnc(C2CC(N3C[C@@H](NS(C)(=O)=O)C(F)(F)C3)=NO2)c(-c2c(F)cccc2F)c1 (stereo partly drawn) [Example 21, N-[(3R)-1-{5-[3-(2,6-difluorophenyl)-5-methylpyridin-2-yl]-4,5-dihydro-1,2-oxazol-3-yl}-4,4-difluoropyrrolidin-3-yl]methanesulfonamide] | 100% |
| CCS(=O)(=O)N[C@@H]1CN(C2=NO[C@H](c3ncc(C)cc3-c3c(F)cccc3F)C2)CC1(F)F [Example 22, N-[(3R)-1-{(5S)-5-[3-(2,6-difluorophenyl)-5-methylpyridin-2-yl]-4,5-dihydro-1,2-oxazol-3-yl}-4,4-difluoropyrrolidin-3-yl]ethanesulfonamide] | 102% |
| Cc1cnc(C2CC(C3CC(NS(C)(=O)=O)C3)=NO2)c(-c2c(F)cc(F)cc2F)c1 (stereo not shown) [Example 23, N-[(1s,3s)-3-{5-[5-methyl-3-(2,4,6-trifluorophenyl)pyridin-2-yl]-4,5-dihydro-1,2-oxazol-3-yl}cyclobutyl]methanesulfonamide] | 42% |
| Cc1cnc(C2CC([C@H]3CC[C@@H](NS(C)(=O)=O)CC3)=NO2)c(-c2c(F)cc(F)cc2F)c1 (stereo partly shown) [Example 24, N-[(1s,4s)-4-{5-[5-methyl-3-(2,4,6-trifluorophenyl)pyridin-2-yl]-4,5-dihydro-1,2-oxazol-3-yl}cyclohexyl]methanesulfonamide] | 20% |
| Cc1cnc(C2CC([C@H]3CC[C@H](NS(C)(=O)=O)C3)=NO2)c(-c2c(F)cc(F)cc2F)c1 (stereo partly drawn) [Example 25, N-[(1S,3S)-3-{5-[5-methyl-3-(2,4,6-trifluorophenyl)pyridin-2-yl]-4,5-dihydro-1,2-oxazol-3-yl}cyclopentyl]methanesulfonamide] | 88% |
| CCS(=O)(=O)NC[C@@H]1CCCN1C1=NOC(c2ncc(C)cc2-c2c(F)cccc2F)C1 (stereo partly drawn) [Example 26, N-{[(2S)-1-{5-[3-(2,6-difluorophenyl)-5-methylpyridin-2-yl]-4,5-dihydro-1,2-oxazol-3-yl}pyrrolidin-2-yl]methyl}ethanesulfonamide] | 42% |
| Cc1cnc(C2CC(N(C)[C@H]3C[C@@H](NS(C)(=O)=O)C3)=NO2)c(-c2c(F)cccc2F)c1 (stereo partly shown) [Example 27, N-{(1s,3s)-3-[{5-[3-(2,6-difluorophenyl)-5-methylpyridin-2-yl]-4,5-dihydro-1,2-oxazol-3-yl}(methyl)amino]cyclobutyl}methanesulfonamide] | 77% |
| Cc1cnc(C2CC(N3CC[C@@H](NS(C)(=O)=O)C(F)(F)CC3)=NO2)c(-c2c(F)cccc2F)c1 (stereo partly drawn) [Example 28, N-[(4R)-1-{5-[3-(2,6-difluorophenyl)-5-methylpyridin-2-yl]-4,5-dihydro-1,2-oxazol-3-yl}-5,5-difluoroazepan-4-yl]methanesulfonamide] | 93% |
| Cc1cnc([C@@H]2CC(N3CC[C@H](NS(C)(=O)=O)C3)=NO2)c(-c2c(F)cccc2F)c1 [Example 29, N-[(3S)-1-{(5S)-5-[3-(2,6-difluorophenyl)-5-methylpyridin-2-yl]-4,5-dihydro-1,2-oxazol-3-yl}pyrrolidin-3-yl]methanesulfonamide] | 96% |
| Cc1cnc([C@@H]2CC(N3CC[C@H](NS(=O)(=O)C4(F)CC4)C3)=NO2)c(-c2c(F)cccc2F)c1 [Example 30, N-[(3S)-1-{(5S)-5-[3-(2,6-difluorophenyl)-5-methylpyridin-2-yl]-4,5-dihydro-1,2-oxazol-3-yl}pyrrolidin-3-yl]-1-fluorocyclopropane-1-sulfonamide] | 104% |
| Cc1cnc([C@@H]2CC(N3C[C@@H](NS(=O)(=O)C(F)F)C(F)(F)C3)=NO2)c(-c2c(F)cccc2F)c1 [Example 31, N-[(3R)-1-{(5S)-5-[3-(2,6-difluorophenyl)-5-methylpyridin-2-yl]-4,5-dihydro-1,2-oxazol-3-yl}-4,4-difluoropyrrolidin-3-yl]-1,1-difluoromethanesulfonamide] | 104% |
| Cc1cnc([C@@H]2CC(N3C[C@H](F)[C@H](NS(C)(=O)=O)C3)=NO2)c(-c2c(F)cccc2F)c1 [Example 32, N-[(3R,4S)-1-{(5S)-5-[3-(2,6-difluorophenyl)-5-methylpyridin-2-yl]-4,5-dihydro-1,2-oxazol-3-yl}-4-fluoropyrrolidin-3-yl]methanesulfonamide] | 98% |
